The values that follow come from patent US8178547B2, “Heterocyclic antiviral compounds” (Roche Palo Alto LLC, priority 2008, dated 2012).

The target of data set [1] is T1, HCV polymerase (NS5B570n-Con1) (Hepatitis C virus genotype 1b, UniProt Q9WMX2).
T1 construct: a 21 amino acid C-terminal deletion of full-length HCV polymerase; made in house; host or cells: E. coli BL21(DE3) pLysS, plasmid pET17b
Briefly: HCV NS5B RNA polymerase activity. The data set is classed as biochemical, HCV Con1 strain. The procedure: The enzymatic activity of HCV polymerase (NS5B570n-Con1) was measured as the incorporation of radiolabeled nucleotide monophosphates into acid insoluble RNA products. Unincorporated radiolabeled substrate was removed by filtration and scintillant was added to the washed and dried filter plate containing radiolabeled RNA product. The amount of RNA product generated by NS5B570n-Con1 at the end of the reaction was directly proportional to the amount of light emitted by the scintillant.
The HCV polymerase used in the enzymatic activity assay is a 21 amino acid C-terminal deletion of full-length HCV polymerase derived from HCV Con1 strain, genotype 1b (GenBank accession number AJ242654) (NS5B570n-Con1). The NS5B570n-Con1 was sub-cloned downstream to the T7 promoter of the plasmid expression construct pET17b and transformed into E. coli strain BL21(DE3) pLysS for protein expression. A single colony was used to start an innoculum for a 10 L culture in LB media supplemented with 100 μg/mL ampicillin at 37° C. Protein expression was induced by the addition of 0.25 mM isopropyl-β-D-thiogalactopyranoside (IPTG) when the optical density of the culture at […] was 0.8. Induction of protein expression was carried out at 30° C. for 16 h after which the cells were harvested by centrifugation. NS5B570n-Con1 was purified to homogeneity using a three-column purification protocol including subsequent column chromatography on Ni-NTA, SP-Sepharose HP and Superdex 75 resins.
[…] TRK-412; specific activity: 30 to 60 Ci/mmol;), 1 μM each ATP, CTP, and GTP, 40 mM Tris-HCl pH 8.0, 40 mM NaCl, 4 mM DTT (dithiothreitol), 4 mM MgCl2, 5 μl of compound serial diluted in DMSO, and nuclease-free water to a final reaction volume of 50 μl. Enzymatic reactions in the presence of poly A RNA template (see section 0004) contained 20 nM Poly A:oligo(rU)16 premixed (see section 0004), 20 nM NS5B570n-Con1 enzyme, 1 μCi of tritiated UTP (Perkin Elmer catalog no. TRK-412; specific activity: 30 to 60 Ci/mmol), 40 mM Tris-HCl pH 8.0, 40 mM NaCl, 4 mM DTT (dithiothreitol), 4 mM MgCl2, 5 μl of compound serial diluted in DMSO, and nuclease-free water to a final reaction volume of 50 μl. Reaction mixtures were assembled in 96-well filter plates (cat #MADVN0B, Millipore Co.) and incubated for 2 h at 30° C. Reactions were stopped by addition of 10% final (v/v) trichloroacetic acid and incubated for 40 min at 4° C. Reactions were filtered, washed with 8 reaction volumes of 10% (v/v) trichloroacetic acetic acid, 4 reaction volumes of 70% (v/v) ethanol, air dried, and 25 μl of scintillant (Microscint 20, Perkin-Elmer) was added to each reaction well.
Two RNA templates were used to assay compounds described herein. The cIRES RNA template was 377 nucleotide long and consisted of a partial complementary sequence (36 nucleotides) of the core protein, followed by 341 nucleotide of the complementary sequence of the internal ribosome entry site. The poly A RNA template (GE Amersham catalog number 27-4110) was a homopolymeric RNA pre-annealed to a oligo(rU)16 primer at a molar ratio of 3-to-1 (primer-template).
The amount of light emitted from the scintillant was converted to counts per minute (CPM) on a Topcount® plate reader (Perkin-Elmer, Energy Range: Low, Efficiency Mode: Normal, Count Time: 1 min, Background Subtract: none, Cross talk reduction: Off).
Data was analyzed in Excel® (Microsoft) and ActivityBase® (Idbs®). The reaction in the absence of enzyme was used to determine the background signal, which was subtracted from the enzymatic reactions. […] All data was expressed as a percentage of the positive control. The compound concentration at which the enzyme-catalyzed rate of RNA synthesis was reduced by 50%

[2] abbreviates: NS5B pol inhibition IC50, as in Example 32 (20 nM RNA template).

A word on the IC50: it is the concentration that gives 50% inhibition. A high value points to a need for much substance. Turning to `COc1c(/C=C/c2ccc(NS(C)(=O)=O)cc2)cc(-c2ccn[nH]c2=O)c2c1C(C)(C)CO2` [Compound I-27, N-(4-{(E)-2-[4-Methoxy-3,3-dimethyl-7-(3-oxo-2,3-dihydro-pyridazin-4-yl)-2,3-dihydro-benzofuran-5-yl]-vinyl}-phenyl)-methanesulfonamide], half-maximal inhibition in data set [1] (setting [2]) (IC50) was put at 0.3 nM. The term melting point denotes the temperature, or range, at which the solid turns liquid. In turn, `COc1ncc(-c2cc(/C=C/c3ccc(NS(C)(=O)=O)cc3)c(OC)c(C(C)(C)C)c2)c(=O)[nH]1` [Compound I-34, N-(4-{(E)-2-[3-tert-Butyl-2-methoxy-5-(2-methoxy-6-oxo-1,6-dihydro-pyrimidin-5-yl)-phenyl]-vinyl}-phenyl) methanesulfonamide] had a melting point of 296 to 299 °C. In data set [1] (setting [2]), this compound showed an IC50 of 0.6 nM. On to `COc1c(/C=C/c2ccc(NS(C)(=O)=O)cc2)cc(-c2c(O)nc(C)[nH]c2=O)cc1C(C)(C)C` [Compound I-41, N-(4-{(E)-2-[3-tert-Butyl-5-(4-hydroxy-2-methyl-6-oxo-1,6-dihydro-pyrimidin-5-yl)-2-methoxy-phenyl]-vinyl}-phenyl)-methanesulfonamide], for which it took 0.4 nM to reach half-maximal inhibition in data set [1] (setting [2]) (IC50). The same measure, in the same setting: the same measure for `COCc1cc(NS(C)(=O)=O)ccc1/C=C/c1cc(-c2cnc(OC)[nH]c2=O)cc(C(C)(C)C)c1OC` [Compound I-39, N-(4-{(E)-2-[3-tert-Butyl-2-methoxy-5-(2-methoxy-6-oxo-1,6-dihydro-pyrimidin-5-yl)-phenyl]-vinyl}-3-methoxymethyl-phenyl)-methanesulfonamide]: 0.9 nM; for `COc1c(-c2ccc3cc(NS(C)(=O)=O)ccc3c2)cc(-c2ncn[nH]c2=O)cc1C(C)(C)C` [Compound I-37, N-{6-[3-tert-Butyl-2-methoxy-5-(6-oxo-1,6-dihydro-[1,2,4]triazin-5-yl)-phenyl]-naphthalen-2-yl}-methanesulfonamide]: 0.7 nM. `COc1ccc(-c2ccn[nH]c2=O)cc1C(C)(C)C` [Compound I-16]: the melting point was 202 to 204 °C. Also, the IC50 in data set [1] (setting [2]) was 132 nM. The compound `COc1c(/C=C/c2ccc(NS(C)(=O)=O)cc2)cc(-c2ncc[nH]c2=O)cc1C(C)(C)C` [Compound I-11, N-(4-{(E)-2-[3-tert-Butyl-2-methoxy-5-(3-oxo-3,4-dihydro-pyrazin-2-yl)-phenyl]-vinyl}-phenyl)-methanesulfonamide] displayed an IC50 in data set [1] (setting [2]) of 4 nM.

In data set [1] (setting [2]), `CC(C)(C)c1cc(/C=C/c2ccc(NS(C)(=O)=O)cc2)cc(-c2ccn[nH]c2=O)c1` [Compound I-15] showed an IC50 of 3 nM. The compound `COc1c(/C=C/c2ccc(NS(C)(=O)=O)cc2)cc(-c2ncc[nH]c2=O)cc1C1(C(F)F)CC1` [Compound I-31, N-(4-{(E)-2-[3-(1-Difluoromethyl-cyclopropyl)-2-methoxy-5-(3-oxo-3,4-dihydro-pyrazin-2-yl)-phenyl]-vinyl}-phenyl)-methanesulfonamide] gave a melting point of 241 to 243 °C. This compound registered an IC50 in data set [1] (setting [2]) of 0.3 nM.

Turning to `COc1c(/C=C/c2ccc(NS(C)(=O)=O)cc2)cc(-c2c[nH]c(=O)[nH]c2=O)cc1C(F)(F)F` [Compound I-35, N-(4-{(E)-2-[5-(2,4-Dioxo-1,2,3,4-tetrahydro-pyrimidin-5-yl)-2-methoxy-3-trifluoromethyl-phenyl]-vinyl}-phenyl)-methanesulfonamide], the melting point was 255 to 258 °C. This compound also showed an IC50 in data set [1] (setting [2]) of 0.5 nM. Regarding `Cc1cc(-c2ccn[nH]c2=O)cc(C(C)(C)C)c1` [Compound I-12], the melting point is 175 to 176 °C. The IC50 in data set [1] (setting [2]) was 390 nM. Regarding `COc1c(/C=C/c2ccc(NS(C)(=O)=O)cc2)cc(-c2c[nH]c(=O)[nH]c2=O)c2c1C(C)(C)CO2` [Compound I-28, N-(4-{(E)-2-[7-(2,4-dioxo-1,2,3,4-tetrahydro-pyrimidin-5-yl)-4-methoxy-3,3-dimethyl-2,3-dihydro-benzofuran-5-yl]-vinyl}-phenyl)-methanesulfonamide], the melting point was above 300 °C. In data set [1] (setting [2]), the IC50 came to 0.6 nM. Taken in the same sequence, the figures for `COc1c(NC(=O)c2ccc(N)cc2)cc(-c2ccn[nH]c2=O)cc1C(C)(C)C` [Compound I-19, 4-Amino-N-[3-tert-butyl-2-methoxy-5-(3-oxo-2,3-dihydro-pyridazin-4-yl)-phenyl]-benzamide] were 174 to 176 °C and 15 nM. For `COc1c(/C=C/c2ccc(NS(C)(=O)=O)cc2)cc(-c2cc(C)n[nH]c2=O)cc1C(C)(C)C` [Compound I-17], the melting point is 292 to 294 °C. Also, in data set [1] (setting [2]), half-maximal inhibition (IC50) was put at 10 nM. The like results for `COc1c(/C=C/c2ccc(NS(C)(=O)=O)cc2)cc(-c2c[nH]c(=O)[nH]c2=O)cc1C1(C(F)F)CC1` [Compound I-30, N-(4-{(E)-2-[3-(1-Difluoromethyl-cyclopropyl)-5-(2,4-dioxo-1,2,3,4-tetrahydro-pyrimidin-5-yl)-2-methoxy-phenyl]-vinyl}-phenyl)-methanesulfonamide] were, in that order, 292 to 295 °C and 0.3 nM. Regarding `COc1c(NC(=O)c2ccc(NCC(F)(F)F)cc2)cc(-c2ccn[nH]c2=O)cc1C(C)(C)C` [Compound I-20, N-[3-tert-Butyl-2-methoxy-5-(3-oxo-2,3-dihydro-pyridazin-4-yl)-phenyl]-4-(2,2,2-trifluoro-ethylamino)-benzamide], the melting point was 250 to 252 °C. In data set [1] (setting [2]), this compound returned an IC50 of 5 nM. The compound further yielded an IC50 in data set [1] (NS5B pol inhibition IC50, cell values marked ^2, as in Example 32 except RNA template concentration 3 nM (footnote 3)) of 3 nM. On to `CC(C)(C)c1cc(CCc2ccc(NS(C)(=O)=O)cc2)c(O)c(-c2ncc[nH]c2=O)c1` [Compound I-5, N-(4-{2-[5-tert-butyl-2-hydroxy-3-(3-oxo-3,4-dihydro-pyrazin-2-yl)-phenyl]-ethyl}-phenyl)-methanesulfonamide], for which the half-inhibitory concentration (IC50) in data set [1] (setting [2]) came out at 92 nM. `COc1c(/C=C/c2ccc(NS(C)(=O)=O)cc2F)cc(-c2c[nH]c(=O)[nH]c2=O)cc1C(C)(C)C` [Compound I-7, N-(4-{(E)-2-[3-tert-Butyl-5-(2,4-dioxo-1,2,3,4-tetrahydro-pyrimidin-5-yl)-2-methoxy-phenyl]-vinyl}-3-fluoro-phenyl)-methanesulfonamide] registered a half-maximal inhibitory concentration (IC50) in data set [1] (setting [2]) of 0.3 nM. The same measure, in the same setting: the same measure for `COc1c(/C=C/c2ccc(NS(C)(=O)=O)cn2)cc(-c2c[nH]c(=O)[nH]c2=O)cc1C(C)(C)C` [Compound I-29, N-(6-{(E)-2-[3-tert-Butyl-5-(2,4-dioxo-1,2,3,4-tetrahydro-pyrimidin-5-yl)-2-methoxy-phenyl]-vinyl}-pyridin-3-yl)-methanesulfonamide]: 1.2 nM; for `COc1c(/C=C/c2ccc(NS(C)(=O)=O)cc2)cc(-c2c[nH]c(=O)[nH]c2=O)cc1CC(F)(F)F` [Compound I-38, N-(4-{(E)-2-[5-(2,4-Dioxo-1,2,3,4-tetrahydro-pyrimidin-5-yl)-2-methoxy-3-(2,2,2-trifluoro-ethyl)-phenyl]-vinyl}-phenyl)-methanesulfonamide]: 1.4 nM. As to `COc1c(/C=C/c2ccc(NS(C)(=O)=O)cc2)cc(-c2cnc(C)[nH]c2=O)cc1C(C)(C)C` [Compound I-43, N-(4-{(E)-2-[3-tert-Butyl-2-methoxy-5-(2-methyl-6-oxo-1,6-dihydro-pyrimidin-5-yl)-phenyl]-vinyl}-phenyl)-methanesulfonamide], the IC50 in data set [1] (setting [2]) came to 1.1 nM. This IC50 and that of the compound before are within 1.5-fold of each other.
